{"source": "patent US10947210B2", "about": "(priority 2015, dated 2021)", "data": [{"biological_target": "HCV RNA-dependent RNA polymerase (NS5B) (Hepatitis C virus genotype 1b (isolate BK) (HCV), UniProt P26663)", "sequence (P26663 2420-3010)": "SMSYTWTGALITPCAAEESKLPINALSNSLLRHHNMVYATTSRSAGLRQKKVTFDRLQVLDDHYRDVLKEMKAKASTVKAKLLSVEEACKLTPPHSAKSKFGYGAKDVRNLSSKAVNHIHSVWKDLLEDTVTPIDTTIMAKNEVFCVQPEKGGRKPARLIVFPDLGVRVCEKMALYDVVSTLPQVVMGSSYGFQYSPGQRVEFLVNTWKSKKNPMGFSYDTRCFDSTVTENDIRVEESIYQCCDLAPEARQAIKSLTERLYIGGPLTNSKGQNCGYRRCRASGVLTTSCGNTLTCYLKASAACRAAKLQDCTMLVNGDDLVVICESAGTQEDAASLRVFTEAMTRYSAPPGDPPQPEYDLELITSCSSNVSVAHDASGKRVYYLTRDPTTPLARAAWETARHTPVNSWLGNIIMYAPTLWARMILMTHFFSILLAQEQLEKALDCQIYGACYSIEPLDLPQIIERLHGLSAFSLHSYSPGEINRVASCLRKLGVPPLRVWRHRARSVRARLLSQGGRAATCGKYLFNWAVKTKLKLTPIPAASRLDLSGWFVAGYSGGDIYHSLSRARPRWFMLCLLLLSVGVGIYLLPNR", "assay": "RNA-Dependent RNA HCV NS5B (polymerase) Assay and IC50 Determination", "format": "biochemical", "details": "purified HCV NS5B polymerase, polyA:U16 substrate, 32P-UTP incorporation; read-out: IC50", "experimental": "RNA-Dependent RNA HCV NS5B (polymerase) Assay and IC50 Determination.\nThe reaction mixtures consisted of 50 mM Hepes-KOH, pH 7.5, 5 mM MgCl2, 5 mM DTT, 2% glycerol, 0.01% Triton® X-100, 0.5 uM polyA:U16 substrate, purified HCV RNA-dependent RNA polymerase, 10 μM UTP, and ^32P-UTP (Perkin Elmer). The reaction mixtures incubated at 30° C. for 60 minutes, and then filtered through Zeta probe membrane (BioRad). The filter was washed with 5×SSC (75 mM sodium citrate, pH 7 and 750 mM NaCl), and the radiolabeled RNA products were quantitated by microbeta (Perkin Elmer). For IC50 determination, different concentrations of inhibitors were added to the polymerase reaction mixtures, and incubated at 37° C. for 60 minutes. IC50 values were determined using GraFit (Erithaus software).\nTable 1 presents IC50 data obtained using the biochemical assay to test representative compounds. Data are presented as follows: “+++” means <0.1 μM; “++” means ≥0.1 μM but <1.0 μM; “+” means ≥1.0 μM.", "units": {"IC50": "nM"}, "values": [{"smiles": "CNC(=O)c1c(-c2ccc(F)cc2)oc2cc(N(CCOCCOCCc3cccc(C(=O)O)c3)S(C)(=O)=O)c(C3CC3)cc12", "note": "[Compound 11-6B, 3-{2-[2-(2-{[5-Cyclopropyl-2-(4-fluoro-phenyl)-3-methylcarbamoyl-benzofuran-6-yl]-methanesulfonyl-amino}-ethoxy)-ethoxy]-ethyl}-benzoic Acid]", "IC50": "< 100"}, {"smiles": "CNC(=O)c1c(-c2ccc(F)cc2)oc2cc(N(CCNC(=O)CNC(=O)CCCC(=O)O)S(C)(=O)=O)c(C3CC3)cc12", "note": "[Compound 07-7, 4-{[(2-{[5-Cyclopropyl-2-(4-fluoro-phenyl)-3-methylcarbamoyl-benzofuran-6-yl]-methanesulfonyl-amino}-ethylcarbamoyl)-methyl]-carbamoyl}-butyric Acid]", "IC50": "> 1000"}, {"smiles": "CNC(=O)c1c(-c2ccc(F)cc2)oc2cc(N(CCOCCOCc3ccc(C(=O)OC)cc3)S(C)(=O)=O)c(C3CC3)cc12", "note": "[Compound 06-6B, 4-[2-(2-{[5-Cyclopropyl-2-(4-fluoro-phenyl)-3-methylcarbamoyl-benzofuran-6-yl]-methanesulfonyl-amino}-ethoxy)-ethoxymethyl]-benzoic Acid Methyl Ester]", "IC50": "> 1000"}, {"smiles": "CNC(=O)c1c(-c2ccc(F)cc2)oc2cc(N(CCOCCOCCOCCOCc3cccc(C(=O)O)c3)S(C)(=O)=O)c(C3CC3)cc12", "note": "[Compound 30-4, 3-(2-{2-[2-(2-{[5-Cyclopropyl-2-(4-fluoro-phenyl)-3-methylcarbamoyl-benzofuran-6-yl]-methanesulfonyl-amino}-ethoxy)-ethoxy]-ethoxy}-ethoxymethyl)-benzoic acid]", "IC50": "> 1000"}, {"smiles": "CNC(=O)c1c(-c2ccc(F)cc2)oc2cc(N(CCOCCOCCOCCCCc3cccc(C(=O)CC(=O)C(=O)O)c3)S(C)(=O)=O)c(C3CC3)cc12", "note": "[Compound 30-16, 4-[3-(4-{2-[2-(2-{[5-Cyclopropyl-2-(4-fluoro-phenyl)-3-methylcarbamoyl-benzofuran-6-yl]-methanesulfonyl-amino}-ethoxy)-ethoxy]-ethoxy}-butyl)-phenyl]-2,4-dioxo-butyric acid]", "IC50": "> 1000"}, {"smiles": "CNC(=O)c1c(-c2ccc(F)cc2)oc2cc(N(CCOCCOCCOCCOCCOCCOCc3ccc(C(=O)/C=C(\\O)C(=O)O)cc3)S(C)(=O)=O)c(C3CC3)cc12", "note": "[Compound 02-10J, 4-(4-{2-[2-(2-{2-[2-(2-{[5-Cyclopropyl-2-(4-fluoro-phenyl)-3-methylcarbamoyl-benzofuran-6-yl]-methanesulfonyl-amino}-ethoxy)-ethoxy]-ethoxy}-ethoxy)-ethoxy]-ethoxymethyl}-phenyl)-2-hydroxy-4-oxo-but-2-enoic Acid]", "IC50": "> 1000"}, {"smiles": "CNC(=O)c1c(-c2ccc(F)cc2)oc2cc(N(CCOCCOCCOCCOCc3ccc(C(=O)/C=C(\\O)C(=O)O)cc3)S(C)(=O)=O)c(C3CC3)cc12", "note": "[Compound 02-10H, 4-[4-(2-{2-[2-(2-{[5-Cyclopropyl-2-(4-fluoro-phenyl)-3-methylcarbamoyl-benzofuran-6-yl]-methanesulfonyl-amino}-ethoxy)-ethoxy]-ethoxy}-ethoxymethyl)-phenyl]-2-hydroxy-4-oxo-but-2-enoic Acid]", "IC50": "> 1000"}, {"smiles": "CNC(=O)c1c(-c2ccc(F)cc2)oc2cc(N(CCOCCOCCOCc3ccccc3C(=O)OC)S(C)(=O)=O)c(C3CC3)cc12", "note": "[Compound 06-6D, 2-{2-[2-(2-{[5-Cyclopropyl-2-(4-fluoro-phenyl)-3-methylcarbamoyl-benzofuran-6-yl]-methanesulfonyl-amino}-ethoxy)-ethoxy]-ethoxymethyl}-benzoic acid methyl ester]", "IC50": "100 to 1000"}, {"smiles": "CCOC(=O)c1ccccc1OCCOCCOCCN(c1cc2oc(-c3ccc(F)cc3)c(C(=O)NC)c2cc1C1CC1)S(C)(=O)=O", "note": "[Compound 14-6A, 2-{2-[2-(2-{[5-Cyclopropyl-2-(4-fluoro-phenyl)-3-methylcarbamoyl-benzofuran-6-yl]-methanesulfonyl-amino}-ethoxy)-ethoxy]-ethoxy}-benzoic Acid Ethyl Ester]", "IC50": "100 to 1000"}, {"smiles": "CNC(=O)c1c(-c2ccc(F)cc2)oc2cc(N(CCCCCOCCCCC(=O)OC(C)(C)C)S(C)(=O)=O)c(C3CC3)cc12", "note": "[Compound 28-7A, 5-(5-{[5-Cyclopropyl-2-(4-fluoro-phenyl)-3-methylcarbamoyl-benzofuran-6-yl]-methanesulfonyl-amino}-pentyloxy)-pentanoic Acid Tert-butyl Ester]", "IC50": "> 1000"}, {"smiles": "CNC(=O)c1c(-c2ccc(F)cc2)oc2cc(N(CCOCCOCc3ccc(C(C)=O)cc3)S(C)(=O)=O)c(C3CC3)cc12", "note": "[Compound 02-8F, 6-({2-[2-(4-Acetyl-benzyloxy)-ethoxy]-ethyl}-methanesulfonyl-amino)-5-cyclopropyl-2-(4-fluoro-phenyl)-benzofuran-3-carboxylic Acid Methylamide]", "IC50": "> 1000"}, {"smiles": "CNC(=O)c1c(-c2ccc(F)cc2)oc2cc(N(CCOCCOCCOc3ccc(C(=O)O)cc3)S(C)(=O)=O)c(C3CC3)cc12", "note": "[Compound 14-7C, 4-{2-[2-(2-{[5-Cyclopropyl-2-(4-fluoro-phenyl)-3-methylcarbamoyl-benzofuran-6-yl]-methanesulfonyl-amino}-ethoxy)-ethoxy]-ethoxy}-benzoic Acid]", "IC50": "100 to 1000"}, {"smiles": "CNC(=O)c1c(-c2ccc(F)cc2)oc2cc(N(CCOCCOCc3ccccc3C(=O)OC)S(C)(=O)=O)c(C3CC3)cc12", "note": "[Compound 06-6A, 2-[2-(2-{[5-Cyclopropyl-2-(4-fluoro-phenyl)-3-methylcarbamoyl-benzofuran-6-yl]-methanesulfonyl-amino}-ethoxy)-ethoxymethyl]-benzoic Acid Methyl Ester]", "IC50": "100 to 1000"}, {"smiles": "CCCCOC(=O)c1ccc(COCCOCCN(c2cc3oc(-c4ccc(F)cc4)c(C(=O)NC)c3cc2C2CC2)S(C)(=O)=O)cc1", "note": "[Compound 06-8B3, 4-[2-(2-{[5-Cyclopropyl-2-(4-fluoro-phenyl)-3-methylcarbamoyl-benzofuran-6-yl]-methanesulfonyl-amino}-ethoxy)-ethoxymethyl]-benzoic Acid Butyl Ester]", "IC50": "100 to 1000"}, {"smiles": "CNC(=O)c1c(-c2ccc(F)cc2)oc2cc(N(CCCOCCCc3ccc(C(=O)O)cc3)S(C)(=O)=O)c(C3CC3)cc12", "note": "[Compound 13-8B, 4-[3-(3-{[5-Cyclopropyl-2-(4-fluoro-phenyl)-3-methylcarbamoyl-benzofuran-6-yl]-methanesulfonyl-amino}-propoxy)-propyl]-benzoic Acid]", "IC50": "100 to 1000"}, {"smiles": "CNC(=O)c1c(-c2ccc(F)cc2)oc2cc(N(CCOCCCCc3ccc(C(=O)OC)cc3)S(C)(=O)=O)c(C3CC3)cc12", "note": "[Compound 13-7A, 4-[4-(2-{[5-Cyclopropyl-2-(4-fluoro-phenyl)-3-methylcarbamoyl-benzofuran-6-yl]-methanesulfonyl-amino}-ethoxy)-butyl]-benzoic Acid Methyl Ester]", "IC50": "100 to 1000"}, {"smiles": "CNC(=O)c1c(-c2ccc(F)cc2)oc2cc(N(CCCCCCOc3ccc(C(=O)O)cc3)S(C)(=O)=O)c(C3CC3)cc12", "note": "[Compound 15-8, 4-(6-{[5-Cyclopropyl-2-(4-fluoro-phenyl)-3-methylcarbamoyl-benzofuran-6-yl]-methanesulfonyl-amino}-hexyloxy)-benzoic Acid]", "IC50": "100 to 1000"}, {"smiles": "CCOC(=O)c1ccc(OCCCCCCN(c2cc3oc(-c4ccc(F)cc4)c(C(=O)NC)c3cc2C2CC2)S(C)(=O)=O)cc1", "note": "[Compound 15-7, 4-(6-{[5-Cyclopropyl-2-(4-fluoro-phenyl)-3-methylcarbamoyl-benzofuran-6-yl]-methanesulfonyl-amino}-hexyloxy)-benzoic Acid Ethyl Ester]", "IC50": "100 to 1000"}]}]}
